Test system: monkey meibomian gland epithelial cells
Assay: Effect on cell number increase in meibomian gland epithelial cells (Experimental Example 3, Cell Counting Kit-8)
Type: cell-based
Conditions: medium renewed every 48 hr (3 x 48 hr), relative to non-addition group = 100%, mean ± SD, N = 5 or 10
Text: An eyelid of monkey isolated and stored in D-PBS was transferred to a clean bench, and cell preparation was aseptically performed as follows.
The isolated eyelid was immersed in 80% ethanol for 30 sec, washed three times with D-PBS added with 1% penicillin-streptomycin (Invitrogen), and transferred to a minimum essential medium (MEM; Invitrogen). The adipose tissue and muscular tissue surrounding the meibomian glandular tissue of the eyelid were removed under a stereomicroscope. They were transferred to MEM containing 0.3 U/mL collagenase A (Roche Diagnostics) and 2.4 U/mL dispase II (Roche Diagnostics), and shaken at 37° C. for 4 hr and at 4° C. overnight. The enzyme-treated tissue was set under a stereomicroscope, and the eyelash and eyelid connective tissue were removed to isolate the meibomian glandular tissue. Trypsin-EDTA (4 mL, Invitrogen) was added to the isolated glandular tissue, and the mixture was incubated at 37° C. for 10 min. After incubation, MEM (5 mL) containing 10% FBS (Invitrogen) was added thereto to stop the enzyme reaction, and the tissue constituting cells were dispersed by repeated suction and discharge of the mixture 5 times using an injection syringe equipped with a 21 G injection needle. The cell dispersion was passed through 100 μm and 40 μm nylon filters (Cell Strainer; Falcon), and cell mass and the like contained therein which could not be treated with the enzyme were removed. The cell suspension passed through the filters was collected in a centrifuge tube (50 mL) and centrifuged at room temperature, 1,500 rpm for 5 min. To the cell layers containing the object cells obtained by the centrifugation was added 80 μL of D-PBS containing 0.5% bovine serum albumin (BSA; Sigma-Aldrich), and the cells were sufficiently suspended therein. Anti-Fibroblast Microbeads (Militenyi Biotec, 20 μL) was added thereto, and the mixture was left standing at room temperature for 30 min. After completion of the reaction with an antibody, 2 mL of D-PBS containing 0.5% BSA was added thereto, and the mixture was centrifuged again at room temperature, 1,500 rpm for 5 min. To the cell layers containing the object cells obtained by the centrifugation was added 1 mL of D-PBS containing 0.5% BSA, and the cells were sufficiently suspended therein. The suspension was added dropwise to LD column (Militenyi Biotec) equilibrated in advance with a column washing solution (D-PBS containing 2 mM EDTA (DOJINDO LABORATORIES) and 0.5% BSA). Then, 2 mL of the column washing solution was added dropwise to the LD column. […] The cells collected in the centrifuge tube were centrifuged at room temperature, 1,500 rpm for 5 min, and the supernatant was removed. The sediment was suspended in Defined Keratinocyte Serum Free Medium (5 mL), centrifuged at room temperature, 1,500 rpm for 5 min, and removed the supernatant. Again, the residue was suspended in DK-SFM (3 mL), centrifuged at room temperature and 1,500 rpm for 5 min, and the supernatant was removed. The cells were suspended in DK-SFM (2 mL), and seeded on a 6 well multi-well plate for cell culture, which had been treated with collagen. The seeded cells were cultured in Defined keratinocyte-Serum Free Medium (DK-SFM; Invitrogen, attached Supplement was added as instructed in the preparation protocol), cultured in an incubator (SANYO) set to 37° C., 5% CO2, 95% air, 100% humidity, and the culture medium was exchanged with a new one every 48 hr until the cells became subconfluent.
As a test substance, compound A, [4-[3-[2-(4-trifluoromethyl)phenyl-4-isopropyl-5-thiazolyl]propionyl]-2-methylphenoxy]acetic acid (hereinafter to be referred to as compound B) or [4-[3-[2-(2-hydroxy-4-chlorophenyl)-5-isopropyl-4-oxazolyl]propionyl]-2-methylphenoxy]acetic acid (hereinafter to be referred to as compound C) was used. […]

## Cc1cc2c(CCc3sc(-c4ccc(C(F)(F)F)cc4)nc3C(C)C)noc2cc1OCC(=O)O [compound A, [3-[2-[4-isopropyl-2-(4-trifluoromethyl)phenyl-5-thiazolyl]ethyl]-5-methyl-1,2-benzisoxazol-6-yl]oxyacetic acid]
10^−6 M
  cell number increase ratio: 189.8 ± 13.1%
10^−7 M
  cell number increase ratio: 177.1 ± 9.7%
10^−8 M
  cell number increase ratio: 175.3 ± 9.0%

Reference: patent publication US8802705B2, “Pharmaceutical containing PPAR delta agonist” (Senju Pharmaceutical Co., Ltd., priority 2007, dated 2014)
